# “And” between values parts separate entries of the source, which are not always exact repeats. Identical values can stand only once. Like-named read-outs stand apart in the source and are kept apart here.
# Tests used:
# [1] = Pharmacokinetic profiling after oral dose in NZB/W F1 mice; type: in vivo, mouse; conditions: for plasma Concentration, individual mouse / concentration at 3 h / concentration at 6 h / concentration at 24 h: 100 mg/kg po; for concentration at 3 h / concentration at 6 h / concentration at 24 h: female, NZB/W F1, mouse, plasma, oral, 100 mg/kg
# Procedure: Cpd-7 was orally administered to 35-week-old female NZB/W F1 mice at 100 mg kg^−1 dissolved in 0.5 w/v% Methyl Cellulose 400 Solution (WAKO, Japan). Blood was collected over 24 h from the isoflurane-anesthetized mice via the jugular vein. The plasma samples were separated by centrifugation. Cpd-7 was extracted from the plasma samples by protein precipitation with methanol and measured using LC/MS/MS (HPLC: SHIMADZU CORPORATION, Japan; MS: AB Sciex Pte. Ltd., Japan). The lower limit of quantification was set at 5 ng/mL.
# [2] = test system: lupus-prone NZB/W F1 mice; assay: Efficacy study in lupus-prone NZB/W F1 mice (proteinuria, survival, kidney histopathology); type: in vivo; conditions: for proteinuria (urinary albumin/creatinine ratio), mean / Histological score (glomerular lesion), Mean: n = 6; for Histological score (glomerular lesion), individual mouse: 0–4 scale
# Procedure: At the initiation of treatment, mice were randomly divided according to bodyweight and proteinuria level (urinary albumin/creatinine ratio over 300 mg g^−1) and were orally once or twice daily. […] During the treatment, nearly dead individuals were euthanized, then sera and kidneys were collected. In this case, the last known values for urinary protein was carried forward.
# Urine protein was quantified by automatic analyzer (BioMajesty ZERO(JCA-ZS050), JEOL Ltd, Japan) with Mouse Urinary Albumin Assay Kit (S-type) (AKRAL-021S, Shibayagi Co.,Ltd., Japan). Urine creatinine levels were measured in the same samples. The urine albumin excretion rate is expressed as the ratio of albumin to creatinine. Time course of proteinuria were analyzed by Dunnett’s multiple-range test.
# The both kidneys were fixed in 10% neutral-buffered formalin, embedded in paraffin, sectioned, stained with hematoxylin and eosin (HE) and periodic acid-Schiff (PAS), and examined by light microscopy. Glomerulonephritis was scored on a 0–4 scale, based on the intensity and extent of histopathological changes. A grade of 0 was given to kidney without glomerular lesions; a grade of 1 was given when there was minimal thickening of the mesangium; a grade of 2 was given when there was a noticeable increase in both mesangial and glomerular capillary cellularity; a grade of 3 was given when the preceding conditions were observed, along with superimposed inflammatory exudates and capsular adhesions; and a grade of 4 was given when the obliteration of the glomerular architecture included 70% of glomeruli. These classifications were used to grade 20 glomeruli within one area, and the mean glomerular histopathological score was calculated for each mouse. Data were analyzed by Tukey’s test.
# [3] = 100 mg kg−1 po once or twice daily, four weeks
smiles,measurement,setting,value
CCOc1nc(C)c2nc(-c3cncc(F)c3)n(Cc3ccc(CN4C[C@@H]5C[C@H]4CN5C)cc3)c2n1 [Cpd-7],"plasma Concentration, individual mouse",[1]; 3 h,3240 ng/mL and 2770 ng/mL
same,"plasma Concentration, individual mouse",[1]; 6 h,948 ng/mL and 525 ng/mL
same,"plasma Concentration, individual mouse",[1]; 24 h,10 ng/mL and 7.55 ng/mL
same,concentration at 3 h,"[1]; 3 h, n = 3, read-out: plasma Concentration, Mean",2890 ng/mL
same,concentration at 3 h,"[1]; 3 h, read-out: plasma Concentration, individual mouse",2650 ng/mL
same,concentration at 6 h,"[1]; 6 h, n = 3, read-out: plasma Concentration, Mean",710 ng/mL
same,concentration at 6 h,"[1]; 6 h, read-out: plasma Concentration, individual mouse",658 ng/mL
same,concentration at 24 h,"[1]; 24 h, n = 3, read-out: plasma Concentration, Mean",8.63 ng/mL
same,concentration at 24 h,"[1]; 24 h, read-out: plasma Concentration, individual mouse",8.33 ng/mL
same,oral availability,[1]; single 100 mg kg−1 po,orally available
same,"proteinuria (urinary albumin/creatinine ratio), mean","[2]; 100 mg kg-1 po B.I.D, 0 wk",1719.9
same,"proteinuria (urinary albumin/creatinine ratio), mean","[2]; 100 mg kg-1 po B.I.D, 1 wk",7204.5
same,"proteinuria (urinary albumin/creatinine ratio), mean","[2]; 100 mg kg-1 po B.I.D, 2 wk",747.0
same,"proteinuria (urinary albumin/creatinine ratio), mean","[2]; 100 mg kg-1 po B.I.D, 3 wk",150.9
same,"proteinuria (urinary albumin/creatinine ratio), mean","[2]; 100 mg kg-1 po B.I.D, 4 wk",121.0
same,"proteinuria (urinary albumin/creatinine ratio), mean","[2]; 100 mg kg-1 po Q.D., 0 wk",1780.7
same,"proteinuria (urinary albumin/creatinine ratio), mean","[2]; 100 mg kg-1 po Q.D., 1 wk",10042.5
same,"proteinuria (urinary albumin/creatinine ratio), mean","[2]; 100 mg kg-1 po Q.D., 2 wk",9132.2
same,"proteinuria (urinary albumin/creatinine ratio), mean","[2]; 100 mg kg-1 po Q.D., 3 wk",6691.2
same,"proteinuria (urinary albumin/creatinine ratio), mean","[2]; 100 mg kg-1 po Q.D., 4 wk",3804.5
same,glomerular lesion scores vs vehicle,[2]; 100 mg kg−1 once or twice daily,significantly reduced
same,death/survival,[2]; [3],prevented death in all mice
same,proteinuria vs vehicle,[2]; [3],significant decrease in proteinuria
same,"Histological score (glomerular lesion), individual mouse",[2]; B.I.D. 100 mg kg-1,0 and 1
same,Survival rate,"[2]; B.I.D. 100 mg kg-1, day 0",100%
same,Survival rate,"[2]; B.I.D. 100 mg kg-1, day 1",100%
same,Survival rate,"[2]; B.I.D. 100 mg kg-1, day 2",100%
same,Survival rate,"[2]; B.I.D. 100 mg kg-1, day 3",100%
same,Survival rate,"[2]; B.I.D. 100 mg kg-1, day 4",100%
same,Survival rate,"[2]; B.I.D. 100 mg kg-1, day 5",100%
same,Survival rate,"[2]; B.I.D. 100 mg kg-1, day 6",100%
same,Survival rate,"[2]; B.I.D. 100 mg kg-1, day 7",100%
same,Survival rate,"[2]; B.I.D. 100 mg kg-1, day 8",100%
same,Survival rate,"[2]; B.I.D. 100 mg kg-1, day 9",100%
same,Survival rate,"[2]; B.I.D. 100 mg kg-1, day 10",100%
same,Survival rate,"[2]; B.I.D. 100 mg kg-1, day 11",100%
same,Survival rate,"[2]; B.I.D. 100 mg kg-1, day 12",100%
same,Survival rate,"[2]; B.I.D. 100 mg kg-1, day 13",100%
same,Survival rate,"[2]; B.I.D. 100 mg kg-1, day 14",100%
same,Survival rate,"[2]; B.I.D. 100 mg kg-1, day 15",100%
same,Survival rate,"[2]; B.I.D. 100 mg kg-1, day 16",100%
same,Survival rate,"[2]; B.I.D. 100 mg kg-1, day 17",100%
same,Survival rate,"[2]; B.I.D. 100 mg kg-1, day 18",100%
same,Survival rate,"[2]; B.I.D. 100 mg kg-1, day 19",100%
same,Survival rate,"[2]; B.I.D. 100 mg kg-1, day 20",100%
same,Survival rate,"[2]; B.I.D. 100 mg kg-1, day 21",100%
same,Survival rate,"[2]; B.I.D. 100 mg kg-1, day 22",100%
same,Survival rate,"[2]; B.I.D. 100 mg kg-1, day 23",100%
same,Survival rate,"[2]; B.I.D. 100 mg kg-1, day 24",100%
same,Survival rate,"[2]; B.I.D. 100 mg kg-1, day 25",100%
same,Survival rate,"[2]; B.I.D. 100 mg kg-1, day 26",100%
same,Survival rate,"[2]; B.I.D. 100 mg kg-1, day 27",100%
same,Survival rate,"[2]; B.I.D. 100 mg kg-1, day 28",100%
same,"Histological score (glomerular lesion), Mean",[2]; B.I.D. 100 mg kg-1,0.3333
same,"Histological score (glomerular lesion), individual mouse",[2]; Q.D. 100 mg kg-1,0 and 2 and 1 and 3
same,Survival rate,"[2]; Q.D. 100 mg kg-1, day 0",100%
same,Survival rate,"[2]; Q.D. 100 mg kg-1, day 1",100%
same,Survival rate,"[2]; Q.D. 100 mg kg-1, day 2",100%
same,Survival rate,"[2]; Q.D. 100 mg kg-1, day 3",100%
same,Survival rate,"[2]; Q.D. 100 mg kg-1, day 4",100%
same,Survival rate,"[2]; Q.D. 100 mg kg-1, day 5",100%
same,Survival rate,"[2]; Q.D. 100 mg kg-1, day 6",100%
same,Survival rate,"[2]; Q.D. 100 mg kg-1, day 7",100%
same,Survival rate,"[2]; Q.D. 100 mg kg-1, day 8",100%
same,Survival rate,"[2]; Q.D. 100 mg kg-1, day 9",100%
same,Survival rate,"[2]; Q.D. 100 mg kg-1, day 10",100%
same,Survival rate,"[2]; Q.D. 100 mg kg-1, day 11",100%
same,Survival rate,"[2]; Q.D. 100 mg kg-1, day 12",100%
same,Survival rate,"[2]; Q.D. 100 mg kg-1, day 13",100%
same,Survival rate,"[2]; Q.D. 100 mg kg-1, day 14",100%
same,Survival rate,"[2]; Q.D. 100 mg kg-1, day 15",100%
same,Survival rate,"[2]; Q.D. 100 mg kg-1, day 16",100%
same,Survival rate,"[2]; Q.D. 100 mg kg-1, day 17",100%
same,Survival rate,"[2]; Q.D. 100 mg kg-1, day 18",100%
same,Survival rate,"[2]; Q.D. 100 mg kg-1, day 19",100%
same,Survival rate,"[2]; Q.D. 100 mg kg-1, day 20",100%
same,Survival rate,"[2]; Q.D. 100 mg kg-1, day 21",100%
same,Survival rate,"[2]; Q.D. 100 mg kg-1, day 22",100%
same,Survival rate,"[2]; Q.D. 100 mg kg-1, day 23",100%
same,Survival rate,"[2]; Q.D. 100 mg kg-1, day 24",100%
same,Survival rate,"[2]; Q.D. 100 mg kg-1, day 25",100%
same,Survival rate,"[2]; Q.D. 100 mg kg-1, day 26",100%
same,Survival rate,"[2]; Q.D. 100 mg kg-1, day 27",100%
same,Survival rate,"[2]; Q.D. 100 mg kg-1, day 28",100%
same,"Histological score (glomerular lesion), Mean",[2]; Q.D. 100 mg kg-1,1
same,toxic signs in body weights or clinical signs,[2]; both treatment groups,no clear toxic signs

# Source: article PMC7562955 (Nature Communications, 2020)
